Measured values from US20100184695A1, “VASCULAR ENDOTHELIAL CELL-BINDING PEPTIDE” (priority 2007, published 2010).
No end group written: not given here.

Experiments:
HUVEC cells [1] = assay: Uptake of fluorescently labeled peptide-multiarm PEG conjugate into endothelial cell (image analysis scoring); assay type: cell-based, human; set-up: key: Score 0: No fluorescent luminescent spot in a cell is recognized.; Score 1: Faint fluorescent luminescent spots are recognized in a cell.; Score 2: Fluorescent luminescent spots clearer than in score 1 are recognized in a cell.; Score 3: Many luminescent spots further brighter than in score 2 are seen in a cell; conditions: fluorescein-labeled multiarm PEG-peptide conjugate, peptide 16 μM, 8 hours
Method: (§1) PEG having four maleimide groups per molecule (Multiarm PEG, SUNBRIGHT PTE-200MA, manufactured by NOF Corporation) was dissolved in DMSO at the concentration of 2 mM, 20 μl of this solution, and an equivalent amount (20 μl) of a 10 mM fluorescein-labeled peptide solution in DMSO were mixed to react them at room temperature for 2 hours. After 60 μl of PBS was added to dilute the mixture to the total amount of 100 μl, desalting treatment was performed using a spin column (Bio-Rad, Micro Bio-Spin Column 30) equilibrated by washing with 500 μl of PBS three times in advance, and an unbound peptide was separated and removed to obtain a peptide-multiarm PEG conjugate.
A 96-well microplate (glass bottom plate, Nunc No. 164588) was treated with 100 μl of a 1% acidic collagen solution for 10 minutes in advance, and washed with 120 μl of PBS once, and 100 μl of 1×10^5/ml of HUVEC cells were seeded, and cultured under the condition of 37° C. and 5% CO2 for 2 days. Upon use, cells were washed with 150 μl of a medium (EBM-2 medium containing a 2% fetal bovine serum (Cambrex Bio Science, containing a growth factor)) once, and 50 μl of the same medium, and 50 μl of a solution obtained by diluting the multiarm PEG-peptide conjugate (a peptide of SEQ ID No. 12 and a partial peptide thereof (SEQ ID Nos. 17, 18, and 19), a peptide of SEQ ID No. 13 and a partial peptide thereof (SEQ ID Nos. 15, 20, and 21), and a random sequence peptide (SEQ ID No. 77)) prepared in Example 3 (1) with a medium to the peptide concentration of 32 μM were sequentially added, followed by culturing under the condition of 37° C. and 5% CO2 for 8 hours (the peptide concentration at reaction with cells was 16 μM). The cell after the reaction was observed using a confocal laser microscope (Olympus FV1000). The amount of fluorescent luminescent spots derived from the peptide recognized in a cell was scored as follows.
Score 0: No fluorescent luminescent spot in a cell is recognized. Score 1: Faint fluorescent luminescent spots are recognized in a cell. Score 2: Fluorescent luminescent spots clearer than in score 1 are recognized in a cell. Score 3: Many luminescent spots further brighter than in score 2 are seen in a cell.

HUVEC cells [2] = assay: Uptake of fluorescently labeled peptide-BSA conjugate (image analysis); assay type: cell-based, human; conditions: peptide 10 μM, 8 hours
Method: (§2) In 1 ml of a 50 mM sodium bicarbonate solution was dissolved 20 mg of BSA, to prepare a 0.3 mM solution. To the total amount (1 ml) of this solution was added 20 μl of a 250 mM solution (final concentration: 5 mM) of NHS-PEO12-maleimide (catalog No. 22112, manufactured by Pierce) which is a divalent crosslinking reagent having a PEG chain spacer, followed by a reaction at room temperature for 1 hour. After the reaction, 100 μl of the solution was desalted using a spin column (Bio-Rad, Micro Bio-Spin Column 30) equilibrated by washing with 500 μl of a 0.1 M sodium phosphate buffer (pH 7.0) three times in advance. An unreacted crosslinking reagent was separated and removed. After desalting, 50 μl of the solution was mixed with an equivalent amount of a 0.1 M sodium phosphate buffer (pH 7.0) to dilute, and to 100 μl of the resulting solution was added 10 μl of a fluorescein-labeled peptide solution in DMSO, followed by a reaction at room temperature for 1 hour. The total amount of the solution after the reaction was desalted using a spin column (Bio-Rad, Micro Bio-Spin Column 30) equilibrated by washing with 500 μl of PBS three times in advance, thereby, an unbound peptide was separated and removed, to obtain a peptide-BSA conjugate solution.
A 96-well microplate (glass bottom plate, Nunc No. 164588) was treated with 100 μl of a 1% acidic collagen solution for 10 minutes in advance, and washed with 120 μl of PBS once, and 100 μl of 1×10^5/ml of HUVEC cells were seeded, and cultured under the condition of 37° C. and 5% CO2 for 2 days. Upon use, cells were washed with 150 μl of a medium (EBM-2 medium containing a 2% fetal bovine serum (Cambrex Bio Science, containing a growth factor)) once, and 50 μl of the same medium, and 50 μl of a solution obtained by diluting the peptide-BSA conjugate (SEQ ID Nos. 12, 13, 16, and 77) prepared in Example 3 (2) with a medium to the peptide concentration of 20 μM were sequentially added, followed by culturing under the condition of 37° C. and 5% CO2 for 8 hours (the peptide concentration at reaction with cells was 10 μM). Cells after the reaction were observed using a confocal laser microscope (Olympus FV1000).

[3] = tested on: normal human umbilical vein endothelial cell; assay: Uptake of peptide-modified liposome encapsulating doxorubicin into HUVEC (quantification analysis); assay type: cell-based; conditions: doxorubicin-encapsulated peptide-modified liposome, 6 hours
Method: Hydrogenated soybean phosphatidyl choline (10 mg), cholesterol (3.4 mg),
distearoylphosphatidylethanolamine-polyethylene glycol 5000 (3.5 mg), and distearoylphosphatidylethanolamine-polyethylene glycol 5000-maleimide (3.1 mg) were dissolved in chloroform, and a solvent in a flask was removed using an evaporator to form a thin film. To this was added 1.7 mL of a 250 mM aqueous ammonium sulfate solution, followed by heating at 65° C. The resulting vesicle was adjusted in a particle size with an extruder using, subsequently, porous membranes of the pore sizes of 1.0 μm, 0.4 μm, and 0.2 μm. Into the prepared liposome having the particle diameter of about 200 nm was encapsulated doxorubicin by a remote loading method. After unencapsulated doxorubicin was removed with a column, peptides (SEQ ID Nos. 12, 13, 76 (partial sequence of SEQ ID No. 7), and 78) were added, respectively, at the ⅕ amount based on maleimide, and a liposome into which various peptides are introduced was prepared. Unreacted maleimide was inactivated by adding the 3-fold amount of 2-mercaptoethanol.
Regarding a 50 to 60% confluent normal human umbilical vein endothelial cell cultured in a 24-well plate, a medium was exchanged, and a doxorubicin-encapsulated peptide-modified liposome solution was added in the half amount of a medium. After 6 hours, cells were washed with a phosphate buffer, treated with trypsin, and cells were collected by a centrifugation procedure. To a cell pellet was added 50 μL of 10% Triton X-100 to dissolve cells and the doxorubicin-encapsulated peptide-modified liposome, 350 μL of isopropanol with 10% 0.75 M HCl added thereto was added, and this was allowed to stand overnight at −20° C. After a centrifugation procedure, the supernatant was analyzed with an ODS column, and doxorubicin taken in the cell was quantitated.

HUVEC cells [4] = assay: Uptake of fluorescently labeled peptide-PEG conjugate into endothelial cell (quantitative analysis); assay type: cell-based, human; conditions: fluorescein-labeled peptide-multiarm PEG conjugate, peptide 10 μM, 8 hours, 37° C.; fluorescence recovered from cells, added conjugate = 100%
Method: as §1
A 96-well microplate (glass bottom plate, Nunc No. 164588) was treated with 100 μl of a 1% acidic collagen solution for 10 minutes in advance, and washed with 120 μl of PBS once, and 1×10^5/ml of 100 μl of HUVEC cells were seeded, and cultured under the condition of 37° C. and 5% CO2 for 2 days. Upon use, cells were washed with 150 μl of a medium (EBM-2 medium containing a 2% fetal bovine serum (Cambrex Bio Science, containing a growth factor)) once, and 50 μl of the same medium, and 50 μl of a solution obtained by diluting a peptide-multiarm PEG conjugate (SEQ ID Nos. 12, 13, 16 (partial sequence of SEQ ID No. 14), and 77) prepared in Example 3 (1) with a medium to the peptide concentration of 20 μM were sequentially added, followed by culturing under the condition of 37° C. and 5% CO2 for 8 hours (the peptide concentration at reaction with cells was 10 μM). Cells after culturing were washed with 150 μl of a HBSS(+) buffer three times to remove an unbound peptide-multiarm PEG conjugate, and 100 μl of HBSS(+) containing 1% SDS to extract a peptide bound to, or taken into cells. The extract was transferred to another 96-well microplate (black plate), and fluorescence at an excitation wavelength of 490 nm and a detection wavelength of 530 nm was measured using a fluorophotometer. Letting the fluorescent intensity of each of the added peptide-multiarm PEG conjugate to be 100%, the amount (%) of uptake of the peptide into cells was calculated from the fluorescent amount recovered from cells.

HUVEC cells [5] = assay: Uptake of fluorescently labeled peptide-BSA conjugate into endothelial cell (quantitative analysis); assay type: cell-based, human; conditions: fluorescein-labeled peptide-BSA conjugate, peptide 10 μM, 8 hours, 37° C.; fluorescence recovered from cells
Method: as §2
On a 96-well microplate (Corning No. 3595) were seeded 100 μl of 1×10^5/ml HUVEC cells, and cells were cultured under the condition of 37° C. and 5% CO2 for 2 days. Upon use, cells were washed with 150 μl of a medium (EBM-2 medium containing a 2% fetal bovine serum (Cambrex Bio Science, containing a growth factor)) once, and 50 μl of the same medium, and 50 μl of a solution obtained by diluting the peptide-BSA conjugate (SEQ ID Nos. 12, 13, 16, and 77) prepared in Example 3 (2) with a medium to the peptide concentration of 20 μM were sequentially added, followed by culturing under the condition of 37° C. and 5% CO2 for 8 hours (the peptide concentration at reaction with cells was 10 μM). Recovery of the peptide-BSA conjugate bound to, or taken into cells after the reaction, and fluorescence quantitation were performed in the same method as in Example 3.

HeLa = assay: Uptake of fluorescently labeled peptide-BSA conjugate (image analysis); assay type: cell-based; conditions: HeLa comparative cell; compared with uptake into a HUVEC

Substance | Intracellular Fluorescence (Score) (HUVEC cells [1]) | Uptake of peptide-BSA conjugate into cell (confocal laser microscopic image) (HUVEC cells [2]) | Recovery of Peptide-PEG conjugate (%) (HUVEC cells [4]) | Recovery of Peptide-BSA conjugate (%) (HUVEC cells [5]) | also measured
SLTVPFLPLYVP [Sequence-13, peptide presented by phage PhD clone3-30] | 2 | many bright luminescent spots were observed in a cell | 0.122% | 0.116% | Amount of uptake of doxorubicin compared with introduction of SEQ ID Nos. 12 and 76 [3]: higher; Amount of uptake of doxorubicin compared with random sequence (SEQ ID No. 78) liposome and liposome with no peptide [3]: remarkably increased; Amount of uptake of doxorubicin relative to no peptide introduction [3]: about 3 fold; Uptake of peptide-BSA conjugate into cell (confocal laser microscopic image) (HeLa): an extremely small amount of peptides were observed in a cell
GTQLFLIH [Sequence-16] | – | many bright luminescent spots were observed in a cell | 0.047% | 0.227% | Uptake of peptide-BSA conjugate into cell (confocal laser microscopic image) (HeLa): an extremely small amount of peptides were observed in a cell
SEQ ID No. 76: partial sequence of SEQ ID No. 7; sequence not printed in the text (VIPILSIYTA; Designed peptide acting as a vascular endothelial cell binding peptide) | – | – | – | – | Amount of uptake of doxorubicin compared with random sequence (SEQ ID No. 78) liposome and liposome with no peptide [3]: remarkably increased
SLTVPFLP [Sequence-20] | 1 | – | – | – | –
PFLPLYVP [Sequence-15] | 2 | – | – | – | –
PSPLALLT [Sequence-18] | 1 | – | – | – | –
TLPSPLAL [Sequence-17] | 1 | – | – | – | –
TLPSPLALLTVH [Sequence-12, peptide presented by phage PhD clone1-14] | 3 | many bright luminescent spots were observed in a cell | 0.211% | 0.127% | Amount of uptake of doxorubicin compared with random sequence (SEQ ID No. 78) liposome and liposome with no peptide [3]: remarkably increased; Uptake of peptide-BSA conjugate into cell (confocal laser microscopic image) (HeLa): an extremely small amount of peptides were observed in a cell
TVPFLPLY [Sequence-21] | 1 | – | – | – | –
EYDLSTAGGAAA [Sequence-77, reference compound] | 0 | no peptide in, a cell was observed | 0.020% | 0.029% | –
PLALLTVH [Sequence-19] | 1 | – | – | – | –
